Data: patent publication US8487115B2, “Hydantoin derivatives of cyano-substituted chrysanthemic acid esters and their use in pest control” (Sumitomo Chemical Company, Limited, priority 2010, dated 2013)

Tested on: German cockroaches
Test: Knockdown test on German cockroaches by spraying an oil solution
Type: in vivo, German cockroach (Blattella germanica)
Details: 0.00156% (w/v) oil solution, 1.5 ml sprayed from 60 cm height, ten German cockroaches (5 male, 5 female), repeated twice
Method: Each of the present invention compounds (1) and (2) (0.00156 parts) produced in the aforementioned Production Examples was dissolved in 10 parts of dichloromethane and the resulting solution was mixed with 89.99844 parts of deodorized kerosine to prepare a 0.00156% (w/v) oil solution.
Ten German cockroaches (5 of each male and female) were released in a test container (measuring 8.75 cm in diameter and 7.5 cm in height, bottom area covered with a 16 mesh wire netting) coated with butter at an inner wall, and the container was disposed on the bottom of a test chamber (bottom surface measuring 46 cm and 46 cm, 70 cm in height).
From 60 cm in height above the container, 1.5 ml of the oil solution of each of the present invention compounds (1) and (2) was sprayed using a spray gun (spray pressure: 0.4 kg/cm^2). Thirty seconds after spraying, the container was removed from the test chamber. After a given time, the number of knockdowned cockroaches was counted and a knockdown rate was determined (repeated twice). The knockdown rate was calculated by the following equation. Knockdown rate (%)=(number of knockdowned cockroaches/number of test cockroaches)×100
For comparison, a test was carried out in the same manner as described above, except that 2,5-dioxo-3-(2-propynyl)imidazolidinylmethyl=(1R)-trans-3-(2-methyl-1-propenyl)-2,2-dimethylcyclopropane carboxylate (compound described in “Pestiside Science”, 1979, 10, p. 291, hereinafter referred to as the comparative compound (1)) represented by the following formula: […]

SMILES | Knockdown rate (%) after 2 minutes [%]
C#CCN1CC(=O)N(COC(=O)[C@@H]2[C@@H](/C=C(C#N)/C=C/C)C2(C)C)C1=O [Present invention compound (2), 2,5-dioxo-3-(2-propynyl)imidazolidinylmethyl=(1R)-trans-3-[(1Z,3E)-2-cyano-1,3-pentadienyl]-2,2-dimethylcyclopropane carboxylate] | 100
C#CCN1CC(=O)N(COC(=O)[C@@H]2[C@@H](C=C(C)C)C2(C)C)C1=O [Comparative compound (1), 2,5-dioxo-3-(2-propynyl)imidazolidinylmethyl=(1R)-trans-3-(2-methyl-1-propenyl)-2,2-dimethylcyclopropane carboxylate] | 45
C#CCN1CC(=O)N(COC(=O)[C@@H]2[C@@H](/C=C(\C#N)C=C)C2(C)C)C1=O [Present invention compound (1), 2,5-dioxo-3-(2-propynyl)imidazolidinylmethyl=(1R)-trans-3-[(1Z)-2-cyano-1,3-butadienyl]-2,2-dimethylcyclopropane carboxylate] | 95
C#CCN1CC(=O)N(COC(=O)[C@@H]2[C@@H](/C=C(\C)C=C)C2(C)C)C1=O [comparative compound (2), 2,5-dioxo-3-(2-propynyl)imidazolidinylmethyl=(1R)-trans-3-[(1E)-2-methyl-1-butadienyl)-2,2-dimethylcyclopropane carboxylate] | 10
